# Results: ChEMBL document CHEMBL1126423, “Acid-catalyzed O-allylation of -hydroxy--amino acids: an entry into conformationally constrained dipeptide surrogates” (Bioorg Med Chem Lett, 1992)
# Target: T1, Angiotensin-converting enzyme (Oryctolagus cuniculus, UniProt P12822)
# T1 sequence (P12822 whole entry): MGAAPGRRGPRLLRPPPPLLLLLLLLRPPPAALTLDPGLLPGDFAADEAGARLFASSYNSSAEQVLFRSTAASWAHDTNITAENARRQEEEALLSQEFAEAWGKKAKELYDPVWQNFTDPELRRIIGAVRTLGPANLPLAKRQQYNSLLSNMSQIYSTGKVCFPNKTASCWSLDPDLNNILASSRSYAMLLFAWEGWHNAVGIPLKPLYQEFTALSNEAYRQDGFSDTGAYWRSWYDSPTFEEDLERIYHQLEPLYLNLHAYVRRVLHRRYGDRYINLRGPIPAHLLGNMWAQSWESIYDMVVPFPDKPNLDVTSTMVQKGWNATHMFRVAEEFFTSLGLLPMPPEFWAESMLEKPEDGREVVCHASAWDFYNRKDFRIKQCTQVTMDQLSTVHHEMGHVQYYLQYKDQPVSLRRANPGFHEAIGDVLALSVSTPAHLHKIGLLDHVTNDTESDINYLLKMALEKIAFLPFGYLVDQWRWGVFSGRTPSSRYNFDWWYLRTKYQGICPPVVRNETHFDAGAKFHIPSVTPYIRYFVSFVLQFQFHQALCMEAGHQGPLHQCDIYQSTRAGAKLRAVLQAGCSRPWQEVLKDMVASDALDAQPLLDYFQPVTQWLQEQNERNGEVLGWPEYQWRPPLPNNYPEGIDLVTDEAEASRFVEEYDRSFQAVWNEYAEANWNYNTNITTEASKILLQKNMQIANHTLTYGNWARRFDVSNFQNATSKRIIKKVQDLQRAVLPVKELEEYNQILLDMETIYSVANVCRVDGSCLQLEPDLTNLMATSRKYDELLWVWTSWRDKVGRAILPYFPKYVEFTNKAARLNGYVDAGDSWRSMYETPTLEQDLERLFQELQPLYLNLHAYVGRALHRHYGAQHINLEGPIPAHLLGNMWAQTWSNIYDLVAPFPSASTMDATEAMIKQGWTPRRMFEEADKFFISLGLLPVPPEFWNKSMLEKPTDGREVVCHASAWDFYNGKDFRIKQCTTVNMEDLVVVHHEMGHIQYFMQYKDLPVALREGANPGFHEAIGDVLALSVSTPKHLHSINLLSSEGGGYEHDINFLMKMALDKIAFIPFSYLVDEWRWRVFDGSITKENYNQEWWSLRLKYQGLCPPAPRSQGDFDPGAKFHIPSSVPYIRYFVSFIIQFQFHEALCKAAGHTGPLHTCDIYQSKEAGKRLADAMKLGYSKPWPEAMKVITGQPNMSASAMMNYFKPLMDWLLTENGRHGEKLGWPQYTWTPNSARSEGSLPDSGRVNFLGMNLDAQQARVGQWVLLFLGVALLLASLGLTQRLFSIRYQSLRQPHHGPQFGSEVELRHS
# Experiment: Inhibitory concentration against rabbit lung Angiotensin I converting enzyme (ACE)
smiles,measurement,value
O=C(O)[C@H](CCc1ccccc1)NC1Cc2ccccc2C2COC[C@H](C(=O)O)N2C1=O (stereo partly specified),IC50,0.09 nM
